# Experiment: ATP Assay: HT1080 cells (as well as other cell types) were plated to confluency in 96-well plates. Cells were exposed to the combination of 10 μM Oligomycin (to block mitochondrial-derived ATP), and the glucose uptake inhibitor compounds for one-hour, after which glycolytically-dervied ATP was measured with the Cell Titer-Glo assay kit (Promega). Dose-response curves of the glucose uptake inhibitor compounds were used to determine the IC50 for GLUT activity.
# Conditions: HT-1080, 1 h
row,SMILES,IC50
1,CC(C)NC(=O)COc1cccc(-c2nc(Nc3ccc(-c4cn[nH]c4)cc3)c3cnn(C)c3n2)c1,in the range around 375 nM
2,CC(C)NC(=O)COc1cccc(-c2nc(Nc3ccc(-c4cn[nH]c4)cc3)c3ncsc3n2)c1,in the range around 375 nM
3,CC(C)NC(=O)COc1cccc(-c2nc(Nc3ccc(-c4cn[nH]c4)cc3)c3ccncc3n2)c1,in the range around 55 nM
4,CC(C)NC(=O)COc1cccc(-c2nc(Nc3ccc(-c4cn[nH]c4)cc3)c3cnccc3n2)c1,in the range around 55 nM
5,CC(=O)N1CCc2nc(-c3cccc(OCC(=O)NC(C)C)c3)nc(Nc3ccc(-c4cn[nH]c4)cc3)c2C1,in the range around 175 nM
6,CC(=O)N1CCc2nc(-c3cccc(OCC(=O)NC(C)(C)C)c3)nc(Nc3ccc(-c4cn[nH]c4)cc3)c2C1,in the range around 55 nM
7,CC(C)NC(=O)COc1cccc(-c2nc3c(c(Nc4ccc(-c5cn[nH]c5)cc4)n2)CN(C(=O)C(C)C)CC3)c1,in the range around 55 nM
8,CCC(C)NC(=O)COc1cccc(-c2nc3c(c(Nc4ccc(-c5cn[nH]c5)cc4)n2)COC3)c1 (stereo not drawn),in the range around 55 nM
9,Cn1ncc2c(Nc3ccc(-c4cn[nH]c4)cc3)nc(-c3cccc(OCC(=O)NC4CCC4)c3)nc21,in the range around 375 nM
10,CC(=O)N1CCc2nc(-c3cccc(OCC(=O)NCC(C)C)c3)nc(Nc3ccc(-c4cn[nH]c4)cc3)c2C1,in the range around 55 nM
11,O=C(COc1cccc(-c2nc(Nc3ccc(-c4cn[nH]c4)cc3)c3sccc3n2)c1)NC1CCCC1,in the range around 55 nM
12,O=C(COc1cccc(-c2nc(Nc3ccc(-c4cn[nH]c4)cc3)c3sccc3n2)c1)NC1CCC1,in the range around 175 nM
13,CCC(CC)NC(=O)COc1cccc(-c2nc3c(c(Nc4ccc(-c5cn[nH]c5)cc4)n2)CN(C(C)=O)CC3)c1,in the range around 55 nM
14,O=C(COc1cccc(-c2nc3c(c(Nc4ccc(-c5cn[nH]c5)cc4)n2)COCC3)c1)NC1CCC1,in the range around 55 nM
15,O=C(COc1cccc(-c2nc3c(c(Nc4ccc(-c5cn[nH]c5)cc4)n2)CSC3)c1)NC1CCC1,in the range around 175 nM
16,CCC(CC)NC(=O)COc1cccc(-c2nc3c(c(Nc4ccc(-c5cn[nH]c5)cc4)n2)COC3)c1,in the range around 55 nM
17,O=C(COc1cccc(-c2nc(Nc3ccc(-c4cn[nH]c4)cc3)c3occc3n2)c1)NC1CCC1,in the range around 375 nM
18,O=C(COc1cccc(-c2nc(Nc3ccc(-c4cn[nH]c4)cc3)c3ncsc3n2)c1)NC1CCC1,in the range around 375 nM
19,O=C(COc1cccc(-c2nc(Nc3ccc(-c4cn[nH]c4)cc3)c3ccncc3n2)c1)NC1CCCC1,in the range around 55 nM
20,CC(=O)N1Cc2nc(-c3cccc(OCC(=O)NC(C)C)c3)nc(Nc3ccc(-c4cn[nH]c4)cc3)c2C1,in the range around 175 nM
21,CCC(C)(C)NC(=O)COc1cccc(-c2nc(Nc3ccc(-c4cn[nH]c4)cc3)c3sccc3n2)c1,in the range around 175 nM
22,CC(C)(C)CNC(=O)COc1cccc(-c2nc3c(c(Nc4ccc(-c5cn[nH]c5)cc4)n2)COC3)c1,in the range around 55 nM
23,CC(C)NC(=O)COc1cccc(-c2nc3c(c(Nc4ccc(-c5cn[nH]c5)cc4)n2)COCC3)c1,in the range around 55 nM
24,CC(=O)N1CCc2nc(-c3cccc(OCC(=O)NC4CCCC4)c3)nc(Nc3ccc(-c4cn[nH]c4)cc3)c2C1,in the range around 55 nM

row,SMILES,IC50
1,CC(C)NC(=O)COc1cccc(-c2nc3c(c(Nc4ccc(-c5cn[nH]c5)cc4)n2)CSC3)c1,in the range around 375 nM
2,CC(C)(C)NC(=O)COc1cccc(-c2nc3c(c(Nc4ccc(-c5cn[nH]c5)cc4)n2)COC3)c1,in the range around 55 nM
3,CCC(C)NC(=O)COc1cccc(-c2nc3c(c(Nc4ccc(-c5cn[nH]c5)cc4)n2)COCC3)c1 (stereo not drawn),in the range around 55 nM
4,O=C(CN1CCOCC1)Nc1cccc(-c2nc(Nc3ccc(-c4cn[nH]c4)cc3)c3ccsc3n2)c1,in the range around 175 nM
5,CC(C)CNC(=O)COc1cccc(-c2nc3c(c(Nc4ccc(-c5cn[nH]c5)cc4)n2)COC3)c1,in the range around 55 nM
6,Cn1ncc2c(Nc3ccc(-c4cn[nH]c4)cc3)nc(-c3cccc(OCC(=O)NC4CCCC4)c3)nc21,in the range around 175 nM
7,CC(=O)N1Cc2nc(-c3cccc(OCC(=O)NC(C)(C)C)c3)nc(Nc3ccc(-c4cn[nH]c4)cc3)c2C1,in the range around 55 nM
8,O=C(COc1cccc(-c2nc(Nc3ccc(-c4cn[nH]c4)cc3)c3occc3n2)c1)NC1CCCC1,in the range around 375 nM
9,CC(C)CNC(=O)COc1cccc(-c2nc(Nc3ccc(-c4cn[nH]c4)cc3)c3ncccc3n2)c1,in the range around 175 nM
10,O=C(COc1cccc(-c2nc(Nc3ccc(-c4cn[nH]c4)cc3)c3ncsc3n2)c1)NC1CCCC1,in the range around 175 nM
11,CC(C)(C)NC(=O)COc1cccc(-c2nc(Nc3ccc(-c4cn[nH]c4)cc3)c3cnccc3n2)c1,in the range around 55 nM
12,CC(C)CNC(=O)COc1cccc(-c2nc3c(c(Nc4ccc(-c5cn[nH]c5)cc4)n2)COCC3)c1,in the range around 55 nM
13,CC(C)(C)CNC(=O)COc1cccc(-c2nc3c(c(Nc4ccc(-c5cn[nH]c5)cc4)n2)COCC3)c1,in the range around 55 nM
14,Cn1cnc2c(Nc3ccc(-c4cn[nH]c4)cc3)nc(-c3cccc(OCC(=O)NC4CCC4)c3)nc21,in the range around 375 nM
15,CC(C)NC(=O)COc1cccc(-c2nc(Nc3ccc4[nH]ncc4c3)c3sccc3n2)c1,in the range around 55 nM
16,CC(C)CNC(=O)COc1cccc(-c2nc(Nc3ccc(-c4cn[nH]c4)cc3)c3cnn(C)c3n2)c1,in the range around 175 nM
17,O=C(COc1cccc(-c2nc3c(c(Nc4ccc(-c5cn[nH]c5)cc4)n2)COCC3)c1)NC1CCCC1,in the range around 55 nM
18,CCC(CC)NC(=O)COc1cccc(-c2nc3c(c(Nc4ccc(-c5cn[nH]c5)cc4)n2)CN(C(C)=O)C3)c1,in the range around 55 nM
19,O=C(COc1cccc(-c2nc(Nc3ccc(-c4cn[nH]c4)cc3)c3sccc3n2)c1)NC1CC1,750 nM
20,CC(C)CNC(=O)COc1cccc(-c2nc(Nc3ccc(-c4cn[nH]c4)cc3)c3ncsc3n2)c1,in the range around 375 nM
21,O=C(COc1cccc(-c2nc(Nc3ccc(-c4cn[nH]c4)cc3)c3ccncc3n2)c1)NC1CCC1,in the range around 55 nM
22,O=C(COc1cccc(-c2nc3c(c(Nc4ccc(-c5cn[nH]c5)cc4)n2)CSC3)c1)NC1CCCC1,in the range around 175 nM
23,CC(C)(C)NC(=O)COc1cccc(-c2nc(Nc3ccc(-c4cn[nH]c4)cc3)c3sccc3n2)c1,in the range around 175 nM
24,O=C(COc1cccc(-c2nc3c(c(Nc4ccc(-c5cn[nH]c5)cc4)n2)COC3)c1)NC1CC(F)(F)C1,in the range around 175 nM

# From ChEMBL document CHEMBL5727836, “Treatment of infectious diseases with glucose uptake inhibitors” (2020)
